PubChem BioAssay AID256 (DTP/NCI, 2004)
Several values for one entry are separate records, joined by “and”; a condition that tells them apart may be missing. Identical values can stand only once. Toxic doses and inconclusive results are not listed. Rule for the calls: active = survival T/C of 150% or more; inactive = T/C below 125% in these data.

Tested on: CD2F1 mice, L1210 leukemia ip, survival T/C
Assay: NCI In Vivo Anticancer Drug Screen. Data for tumor model L1210 Leukemia (intraperitoneal) in CD2F1 (CDF1) mice
Conditions: higher = longer survival
Summary of the method: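 Read-out first: treated-group measurement over vehicle-control measurement, expressed as a ratio. Animals bore a transplanted tumor line and were dosed with compound or vehicle.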

[1] = endpoint: mean survival time, dose: 100.0 mg/kg/injection, schedule: Q04DX003 (ip), vehicle: saline with Tween-80
[2] = endpoint: mean survival time, dose: 100.0 mg/kg/injection, schedule: Q01DX009 (ip), vehicle: saline sonified
[3] = endpoint: mean survival time, dose: 200.0 mg/kg/injection, schedule: Q01DX009 (ip), vehicle: saline sonified
[4] = endpoint: mean survival time, dose: 400.0 mg/kg/injection, schedule: Q01DX009 (ip), vehicle: saline sonified
[5] = endpoint: mean survival time, dose: 100.0 mg/kg/injection, schedule: Q01DX009 (ip), vehicle: saline with Tween-80
[6] = endpoint: mean survival time, dose: 200.0 mg/kg/injection, schedule: Q01DX009 (ip), vehicle: saline with Tween-80
[7] = endpoint: mean survival time, dose: 200.0 mg/kg/injection, schedule: Q04DX003 (ip), vehicle: saline with Tween-80
[8] = endpoint: mean survival time, dose: 400.0 mg/kg/injection, schedule: Q01DX009 (ip), vehicle: saline with Tween-80
[9] = endpoint: mean survival time, dose: 400.0 mg/kg/injection, schedule: Q04DX003 (ip), vehicle: saline with Tween-80
[10] = endpoint: mean survival time, dose: 100.0 mg/kg/injection, schedule: Q01DX001 (ip), vehicle: saline
[11] = endpoint: mean survival time, dose: 200.0 mg/kg/injection, schedule: Q01DX001 (ip), vehicle: saline
[12] = endpoint: mean survival time, dose: 400.0 mg/kg/injection, schedule: Q01DX001 (ip), vehicle: saline
[13] = endpoint: mean survival time, dose: 12.5 mg/kg/injection, schedule: Q01DX009 (ip), vehicle: saline
[14] = endpoint: mean survival time, dose: 25.0 mg/kg/injection, schedule: Q01DX009 (ip), vehicle: saline
[15] = endpoint: mean survival time, dose: 50.0 mg/kg/injection, schedule: Q01DX009 (ip), vehicle: saline

Measured: T/C

COc1nc(C(Cl)(Cl)Cl)c(Cl)c(OC)c1Cl
inactive: endpoint: median survival time, dose: 12.5 mg/kg/injection, schedule: Q01DX009 (ip), vehicle: Klucel (hydroxypropylcellulose) (HPC) 108 % of control | endpoint: median survival time, dose: 25.0 mg/kg/injection, schedule: Q01DX009 (ip), vehicle: Klucel (hydroxypropylcellulose) (HPC) 98 % of control and 103 % of control | endpoint: median survival time, dose: 50.0 mg/kg/injection, schedule: Q01DX005 (ip), vehicle: Klucel (hydroxypropylcellulose) (HPC) 105 % of control and 112 % of control | endpoint: median survival time, dose: 50.0 mg/kg/injection, schedule: Q01DX009 (ip), vehicle: Klucel (hydroxypropylcellulose) (HPC) 106 % of control and 107 % of control | endpoint: median survival time, dose: 67.0 mg/kg/injection, schedule: Q01DX005 (ip), vehicle: Klucel (hydroxypropylcellulose) (HPC) 119 % of control and 102 % of control | endpoint: median survival time, dose: 90.0 mg/kg/injection, schedule: Q01DX005 (ip), vehicle: Klucel (hydroxypropylcellulose) (HPC) 105 % of control | endpoint: median survival time, dose: 120.0 mg/kg/injection, schedule: Q01DX005 (ip), vehicle: Klucel (hydroxypropylcellulose) (HPC) 113 % of control | endpoint: median survival time, dose: 200.0 mg/kg/injection, schedule: Q01DX009 (ip), vehicle: Klucel (hydroxypropylcellulose) (HPC) 115 % of control and 120 % of control

CN(C)Cc1cc(C(C)(C)CC(C)(C)C)cc(CN(C)C)c1O
inactive: endpoint: mean survival time, dose: 25.0 mg/kg/injection, schedule: Q04DX003 (ip), vehicle: saline with Tween-80 98 % of control | endpoint: mean survival time, dose: 50.0 mg/kg/injection, schedule: Q04DX003 (ip), vehicle: saline with Tween-80 100 % of control | [1] 96 % of control and 97 % of control

Nc1ccc(OCc2ccc(C(=O)Nc3cccc(S(=O)(=O)F)c3)cc2)c(Cl)c1
inactive: [2] 91 % of control | [3] 95 % of control | [4] 93 % of control

C=CCN1C(=O)c2ccccc2C1=O
inactive: [5] 98 % of control | [1] 97 % of control | [6] 94 % of control | [7] 101 % of control | [8] 100 % of control | [9] 101 % of control

Cc1csc(NC(=O)c2ccc(C(=O)Nc3nc(C)cs3)cc2)n1
inactive: [10] 95 % of control | [11] 95 % of control | [12] 92 % of control

C=C(Br)CN(CC)C(C)=O
inactive: [13] 102 % of control | endpoint: mean survival time, dose: 12.5 mg/kg/injection, schedule: Q04DX003 (ip), vehicle: saline 96 % of control | [14] 97 % of control | endpoint: mean survival time, dose: 25.0 mg/kg/injection, schedule: Q04DX003 (ip), vehicle: saline 95 % of control | [15] 114 % of control | endpoint: mean survival time, dose: 50.0 mg/kg/injection, schedule: Q04DX003 (ip), vehicle: saline 104 % of control

S=C(Sc1ccccc1)Sc1ccccc1
inactive: [5] 88 % of control | [1] 92 % of control | [6] 95 % of control | [7] 103 % of control | [8] 91 % of control | [9] 104 % of control

Cc1ccc(S(=O)(=O)OCCCCOS(=O)(=O)c2ccc(C)cc2)cc1
inactive: endpoint: mean survival time, dose: 100.0 mg/kg/injection, schedule: Q04DX003 (ip), vehicle: other 105 % of control | endpoint: mean survival time, dose: 200.0 mg/kg/injection, schedule: Q04DX003 (ip), vehicle: other 94 % of control | endpoint: mean survival time, dose: 400.0 mg/kg/injection, schedule: Q04DX003 (ip), vehicle: other 96 % of control

NC(Cn1ccc(=O)c(O)c1)C(=O)O (stereo not given)
inactive: endpoint: median survival time, dose: 50.0 mg/kg/injection, schedule: Q01DX009 (ip), vehicle: saline 106 % of control | endpoint: median survival time, dose: 100.0 mg/kg/injection, schedule: Q01DX009 (ip), vehicle: saline 107 % of control | endpoint: median survival time, dose: 200.0 mg/kg/injection, schedule: Q01DX009 (ip), vehicle: saline 107 % of control | endpoint: median survival time, dose: 400.0 mg/kg/injection, schedule: Q01DX009 (ip), vehicle: saline 114 % of control

O=C1CCC([N+](=O)[O-])C(c2cccc3ccccc23)N1 (stereo not given)
inactive: endpoint: mean survival time, dose: 100.0 mg/kg/injection, schedule: Q01DX001 (ip), vehicle: saline with Tween-80 94 % of control | endpoint: mean survival time, dose: 200.0 mg/kg/injection, schedule: Q01DX001 (ip), vehicle: saline with Tween-80 94 % of control | endpoint: mean survival time, dose: 400.0 mg/kg/injection, schedule: Q01DX001 (ip), vehicle: saline with Tween-80 97 % of control

O=P(O)(O)Cc1ccccc1-c1ccccc1
inactive: [10] 93 % of control | [11] 94 % of control | [12] 100 % of control

C1CN2CN3CCN(CN1C3)C2
inactive: [13] 97 % of control | [14] 109 % of control | [15] 105 % of control | endpoint: mean survival time, dose: 100.0 mg/kg/injection, schedule: Q01DX009 (ip), vehicle: saline 118 % of control

CCSC(C)CC(=O)O (stereo not given)
inactive: [10] 103 % of control | [11] 103 % of control

CC1=C(C)C(=O)C(CC2=C(C)C(=O)C(C)=C(C)C2=O)=C(C)C1=O
inactive: endpoint: mean survival time, dose: 100.0 mg/kg/injection, schedule: Q04DX002 (ip), vehicle: saline with Tween-80 102 % of control | endpoint: mean survival time, dose: 200.0 mg/kg/injection, schedule: Q04DX002 (ip), vehicle: saline with Tween-80 91 % of control | endpoint: mean survival time, dose: 400.0 mg/kg/injection, schedule: Q04DX002 (ip), vehicle: saline with Tween-80 109 % of control

CC(=O)N(Cc1ccccn1)N=O
inactive: endpoint: mean survival time, dose: 75.0 mg/kg/injection, schedule: Q01DX001 (ip), vehicle: water 112 % of control | endpoint: mean survival time, dose: 150.0 mg/kg/injection, schedule: Q01DX001 (ip), vehicle: water 122 % of control

COc1nc(NC(C)C)nc(NC(C)C)n1
inactive: endpoint: mean survival time, dose: 50.0 mg/kg/injection, schedule: Q01DX009 (ip), vehicle: saline with Tween-80 97 % of control | [5] 107 % of control | endpoint: mean survival time, dose: 100.0 mg/kg/injection, schedule: Q04DX003 (ip), vehicle: saline 95 % of control | [6] 105 % of control | endpoint: mean survival time, dose: 200.0 mg/kg/injection, schedule: Q04DX003 (ip), vehicle: saline 100 % of control

CC(Cl)CN(CC(C)Cl)c1ccc(S(=O)(=O)Nc2ncccn2)cc1 (stereo not given)
inactive: endpoint: mean survival time, dose: 35.0 mg/kg/injection, schedule: Q01DX009 (ip), vehicle: other 114 % of control

COc1ccc(OC)c(NC(=O)Nc2cc(Cl)c(OC)cc2OC)c1
inactive: [5] 87 % of control | endpoint: mean survival time, dose: 178.0 mg/kg/injection, schedule: Q01DX009 (ip), vehicle: saline with Tween-80 97 % of control | [6] 103 % of control | endpoint: mean survival time, dose: 266.0 mg/kg/injection, schedule: Q01DX009 (ip), vehicle: saline with Tween-80 95 % of control | endpoint: mean survival time, dose: 600.0 mg/kg/injection, schedule: Q01DX009 (ip), vehicle: saline with Tween-80 95 % of control

COC1=CCC2=C(C1)C1(C)CCCC(C)(CO)C1CC2 (stereo not given)
inactive: [1] 94 % of control | [7] 92 % of control | [9] 97 % of control

Nc1ncnc2c1c(CO)cn2C1OC(CO)C(O)C1O (stereo not given)
inactive: endpoint: mean survival time, dose: 25.0 mg/kg/injection, schedule: Q01DX005 (ip), vehicle: distilled water + Tween-80 109 % of control | endpoint: mean survival time, dose: 50.0 mg/kg/injection, schedule: Q01DX005 (ip), vehicle: distilled water + Tween-80 117 % of control | endpoint: mean survival time, dose: 100.0 mg/kg/injection, schedule: Q01DX005 (ip), vehicle: distilled water + Tween-80 113 % of control

CC1(C)NC(=O)C2CC21C (stereo not given)
inactive: endpoint: mean survival time, dose: 25.0 mg/kg/injection, schedule: Q04DX002 (ip), vehicle: saline 96 % of control | endpoint: mean survival time, dose: 50.0 mg/kg/injection, schedule: Q04DX002 (ip), vehicle: saline 112 % of control | endpoint: mean survival time, dose: 100.0 mg/kg/injection, schedule: Q04DX002 (ip), vehicle: saline 93 % of control

CN(C)c1ccc(Cc2cc(O)c3c(c2O)C(=O)c2ccccc2C3=O)cc1
inactive: [2] 93 % of control | [3] 100 % of control | [4] 96 % of control

CCOC(=O)c1c(C)[nH]c(C(=O)C(N=O)C(=O)OCC)c1C (stereo not given)
inactive: [1] 101 % of control | [7] 97 % of control | [9] 97 % of control
